PMC10892041, “Vanadium Complexes with Thioanilide Derivatives of Amino Acids: Inhibition of Human Phosphatases and Specificity in Various Cell Models of Metabolic Disturbances” (Pharmaceuticals, 2024)

What was measured:
CDC25A = target: T1, CDC25A (Homo sapiens, UniProt P30304); assay: Inhibition of human recombinant non-tyrosine phosphatase CDC25A (3-O-methylfluorescein phosphate); assay type: biochemical
T1 construct: purchased Sigma-Aldrich
T1 sequence (P30304 1-524): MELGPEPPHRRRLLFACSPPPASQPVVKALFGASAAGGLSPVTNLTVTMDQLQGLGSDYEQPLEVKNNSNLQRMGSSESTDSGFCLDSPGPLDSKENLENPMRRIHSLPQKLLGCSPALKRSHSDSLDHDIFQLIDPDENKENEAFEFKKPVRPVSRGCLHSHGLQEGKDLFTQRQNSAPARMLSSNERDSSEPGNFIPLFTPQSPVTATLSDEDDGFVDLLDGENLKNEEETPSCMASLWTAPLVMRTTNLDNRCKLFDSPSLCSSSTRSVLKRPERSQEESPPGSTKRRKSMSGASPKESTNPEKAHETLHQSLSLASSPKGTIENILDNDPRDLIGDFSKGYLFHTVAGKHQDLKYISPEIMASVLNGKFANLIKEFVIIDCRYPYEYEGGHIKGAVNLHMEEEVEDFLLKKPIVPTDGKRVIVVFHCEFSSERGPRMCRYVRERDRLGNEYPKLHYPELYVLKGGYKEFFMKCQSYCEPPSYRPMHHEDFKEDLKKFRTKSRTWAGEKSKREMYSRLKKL
Method: (§1) For the inhibition assay of non-tyrosine phosphatases, human recombinant proteins were used (Sigma-Aldrich). The reactions were performed in black opaque 384-well microplates (PerkinElmer). To the solution of the tested complexes, an equal volume of a test solution of phosphatase was added. CDC25A were diluted in reaction buffer to the final concentration of 400 ng/mL as for tyrosine phosphatases (described in the section above), and PPA2 (final 0.5 U/mL) was diluted in 50 mM Tris-HCl, 0.05% Tween-20, and 125 µg/mL protease-free bovine serum albumin (pH 7.0). These solutions were dispensed using an automated injector. After 10 min, a solution of phosphate 6,8-difluoro-4-methyl (DiFMUP; Thermo Fisher Scientific) was added for the PPA2 sample until the final concentration 0.1 mM. For CDC25A samples, 3-O-methylfluorescein phosphate for the final concentration of 0.2 mM was added. Samples were incubated for 180 min at 23 °C, and then the measurements of fluorescence intensity (excitation 355 and emission 560 nm) were performed on a multifunctional plate reader POLARstar Omega (BMG Labtech). Assays were performed in triplicate. The results were expressed as percent of inhibition of untreated control (enzyme with vehicle solvent only).

SHP1 = target: T2, SHP1 (Homo sapiens, UniProt P29350); assay: Inhibition of human recombinant tyrosine phosphatase SHP1 (DiFMUP fluorescence); assay type: biochemical; settings: for Inhibition of SHP1, percentage of inhibition of the control: 1 µM, control solvent only, SD did not exceed 6%
T2 construct: purchased Sigma-Aldrich
T2 sequence (P29350 whole entry): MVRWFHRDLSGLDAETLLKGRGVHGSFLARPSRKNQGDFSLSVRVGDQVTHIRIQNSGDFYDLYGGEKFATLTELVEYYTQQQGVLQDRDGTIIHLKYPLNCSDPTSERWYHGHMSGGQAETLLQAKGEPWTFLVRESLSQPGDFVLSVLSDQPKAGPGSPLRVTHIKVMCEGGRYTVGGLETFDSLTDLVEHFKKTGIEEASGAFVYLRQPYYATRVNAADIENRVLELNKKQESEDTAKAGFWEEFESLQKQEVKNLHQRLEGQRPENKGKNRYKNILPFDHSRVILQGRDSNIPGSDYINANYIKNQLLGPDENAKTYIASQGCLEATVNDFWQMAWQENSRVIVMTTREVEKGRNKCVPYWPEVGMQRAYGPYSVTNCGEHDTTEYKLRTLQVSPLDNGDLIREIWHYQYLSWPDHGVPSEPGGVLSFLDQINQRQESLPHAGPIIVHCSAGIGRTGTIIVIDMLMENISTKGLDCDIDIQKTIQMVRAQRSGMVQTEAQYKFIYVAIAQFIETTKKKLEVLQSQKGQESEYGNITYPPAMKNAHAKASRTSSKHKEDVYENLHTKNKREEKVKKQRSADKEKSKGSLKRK
Method: (§2) To determine the ability of the tested compounds for inhibition tyrosine phosphatases, human recombinant proteins were used (Sigma-Aldrich). The reactions were performed in black opaque 384-well microplates (PerkinElmer, Waltham, MA, USA). An equal volume of phosphatase solution in a reaction buffer (25 mM of 3-(N-morpholino)propanesulfonic acid (MOPS), 50 mM NaCl, 1 mM dithiothreitol (DTT), and 0.05% Tween-20 (pH 7.0)) was added to the solution of the tested compound on microplate. These solutions were dispensed using an automated injector. The following final concentrations of the tested phosphatases were used: PTP1B 50 ng/mL, SHP1 400 ng/mL, SHP2 50 ng/mL, LAR 5 ng/mL, and PTPRA 100 ng/mL. After 10 min, a solution of phosphate 6,8-difluoro-4-methyl (DiFMUP; Thermo Fisher Scientific) was added until its final concentration was 0.1 mM. Samples were incubated for 20 miN at 23 °C, and then the measurements of fluorescence intensity (excitation 355 and emission […]) were performed on a multifunctional plate reader POLARstar Omega (BMG Labtech, Ortenberg, Germany). Assays were performed in triplicate. For the screening assays, the final concentration of the tested compounds was 1 µM. The results were expressed as percent inhibition of untreated control (enzyme with vehicle only) for the screening tests. […] IC50 were calculated using GraphPad Prism version 6.0 software (GraphPad Software, Boston, MA, USA).

PP2A = PP2A (Homo sapiens, UniProt P67775); assay: Inhibition of human recombinant non-tyrosine phosphatase PP2A (DiFMUP); assay type: biochemical
PP2A, sequence (P67775 whole entry): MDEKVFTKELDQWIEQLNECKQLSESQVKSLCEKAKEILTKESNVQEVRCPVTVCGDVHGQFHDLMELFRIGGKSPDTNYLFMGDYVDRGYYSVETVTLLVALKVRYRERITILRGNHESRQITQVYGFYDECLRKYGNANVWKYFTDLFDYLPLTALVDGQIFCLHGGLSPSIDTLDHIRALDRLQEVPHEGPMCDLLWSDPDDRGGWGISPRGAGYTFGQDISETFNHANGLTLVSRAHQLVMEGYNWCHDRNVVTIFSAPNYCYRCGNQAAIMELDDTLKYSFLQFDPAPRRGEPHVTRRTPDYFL
Method: as §1

myocytes C2C12 = system: myocytes C2C12; design: method as in doi:10.1016/j.poly.2020.114589; settings: 50 µM; previously published by the authors; cited from earlier work
SHP2 = target: T3, SHP2 (Homo sapiens, UniProt Q06124); assay: Inhibition of human recombinant tyrosine phosphatase SHP2 (DiFMUP fluorescence); assay type: biochemical; settings: for Inhibition of SHP2, percentage of inhibition of the control: 1 µM, control solvent only, SD did not exceed 6%
T3 construct: purchased Sigma-Aldrich
T3 sequence (Q06124 1-593): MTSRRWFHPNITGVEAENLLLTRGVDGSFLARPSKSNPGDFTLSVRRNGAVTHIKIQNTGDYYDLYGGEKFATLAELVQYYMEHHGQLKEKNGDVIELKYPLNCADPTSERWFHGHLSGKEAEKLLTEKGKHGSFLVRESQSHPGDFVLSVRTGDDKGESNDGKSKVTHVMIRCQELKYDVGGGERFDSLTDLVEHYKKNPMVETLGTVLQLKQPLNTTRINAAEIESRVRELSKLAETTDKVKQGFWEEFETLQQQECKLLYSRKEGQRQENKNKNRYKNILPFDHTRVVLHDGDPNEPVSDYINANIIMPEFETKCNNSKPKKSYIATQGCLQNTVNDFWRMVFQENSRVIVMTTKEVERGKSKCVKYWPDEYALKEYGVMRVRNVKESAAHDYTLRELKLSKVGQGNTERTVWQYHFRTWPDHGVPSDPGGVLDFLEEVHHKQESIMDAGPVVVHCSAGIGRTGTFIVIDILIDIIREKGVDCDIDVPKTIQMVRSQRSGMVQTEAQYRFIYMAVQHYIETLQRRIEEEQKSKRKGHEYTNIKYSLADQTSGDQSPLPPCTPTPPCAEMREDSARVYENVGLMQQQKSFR
Method: as §2

hepatocytes HepG2 [1] = assay: Transport of [14C]-deoxy-D-glucose into insulin-resistant hepatocytes (TNF or oleic acid); assay type: cell-based, human; settings: 10 µM; p ≤ 0.05
Method: After 24 h incubation, the tested complexes were added. After 2 h incubation at 37 °C in 5% CO2, the medium was changed to low-glucose medium (1000 mg/L), and the tested complexes were added again, with further incubation for 4 h being conducted.
For cells proceeded as above, 2-deoxy-D-[U-14C]-glucose (250–350 mCi/mmol, NEC720A, PerkinElmer) solution in KRB with a total activity of 0.03 mCi was added to each well. […] Non-specific radioactivity was subtracted from each result (cpm). Two independent experiments with triplicates were conducted.
Next, the compounds in fresh medium were added, further incubation was carried out for 24 h, and the scintillation proximity assay for the uptake of radiolabeled 2-deoxy-D-[U-14C]-glucose was conducted as described in the section above.

hepatocytes HepG2 [2] = settings: 50 µM
Method: Experiments on the inhibition of hepatic gluconeogenesis in HepG2 hepatocytes by the vanadium complexes were carried out based on a previous description with some modifications [143]. Hepatocytes HepG2 in culture medium (as indicated above) were seeded on a half-area 96 microplate at the amount of 50,000 per well. After 16–24 h, cells were washed with PBS three times and one time with experimental medium (DMEM without glucose with 0.1% BSA, 2 µM L-glutamine, 15 mM HEPES, 1 mM sodium pyruvate, 10 mM calcium lactate, 100 IU/mL penicillin, and 100 mg/mL streptomycin). Cells were incubated in this medium for 3 h at 37 °C in 5% CO2, and the next medium was changed to the experimental medium with additional gluconeogenesis inductors: 10 µM dexamethasone, 100 µM 8-bromoadenosine 3′,5′-cyclic monophosphate sodium salt (8-Br-cAMP), and 500 µM 3-isobutyl-1-methylxanthine (IBMX). After adding the test compounds, the cells were incubated for 3 h at 37 °C in a 5% CO2 microplate, and then the supernatant was collected for glucose assay (as described in Section 4.2.6). Glucose synthesis was calculated as glucose concentration differences between experimental medium without cells and medium with cells after incubation with the tested compound. The final results were expressed as the percent of inhibition of glucose synthesis by cells incubated with solvent only.

PTP1B = target: T4, PTP1B (Homo sapiens, UniProt P18031); assay: Inhibition of human recombinant tyrosine phosphatase PTP1B (DiFMUP fluorescence); assay type: biochemical; settings: for Inhibition of PTP1B, percentage of inhibition of the control: 1 µM, control solvent only, SD did not exceed 6%
T4 construct: purchased Sigma-Aldrich
T4 sequence (P18031 1-435): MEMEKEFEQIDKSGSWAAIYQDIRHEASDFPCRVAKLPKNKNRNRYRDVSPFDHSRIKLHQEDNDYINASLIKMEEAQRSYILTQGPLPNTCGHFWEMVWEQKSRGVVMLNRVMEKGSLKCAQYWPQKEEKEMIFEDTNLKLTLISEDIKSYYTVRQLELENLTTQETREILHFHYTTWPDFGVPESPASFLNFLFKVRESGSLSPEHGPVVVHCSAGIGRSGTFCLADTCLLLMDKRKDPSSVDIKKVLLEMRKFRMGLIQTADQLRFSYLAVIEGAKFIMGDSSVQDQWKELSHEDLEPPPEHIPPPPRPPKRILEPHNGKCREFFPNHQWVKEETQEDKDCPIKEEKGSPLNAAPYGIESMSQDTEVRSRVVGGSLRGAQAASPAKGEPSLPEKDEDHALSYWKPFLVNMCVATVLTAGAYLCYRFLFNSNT
Method: as §2

LAR = target: T5, LAR (Homo sapiens, UniProt P10586); assay: Inhibition of human recombinant tyrosine phosphatase LAR (DiFMUP fluorescence); assay type: biochemical; settings: for Inhibition of LAR, percentage of inhibition of the control: 1 µM, control solvent only, SD did not exceed 6%
T5 sequence (P10586 1352-1607 limits assumed): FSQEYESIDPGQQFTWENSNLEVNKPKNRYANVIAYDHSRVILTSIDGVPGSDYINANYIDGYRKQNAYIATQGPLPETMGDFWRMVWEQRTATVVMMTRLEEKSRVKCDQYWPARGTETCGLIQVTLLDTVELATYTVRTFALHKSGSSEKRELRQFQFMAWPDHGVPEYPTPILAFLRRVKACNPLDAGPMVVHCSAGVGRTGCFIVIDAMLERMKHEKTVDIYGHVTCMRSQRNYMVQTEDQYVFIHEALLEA
Method: as §2

[3] = Viability of myocytes C2C12 after 24 h incubation (resazurin-based reagent); settings: mouse, C2C12 myocytes
Method: Simultaneously with glucose consumption tests, the viability of myocytes C2C12 was examined due to their prolonged 24 h incubation with vanadium complexes.
Prolonged incubation of the cells with vanadium complexes, as was the case during the study of the effect on glucose consumption, more closely corresponds to the actual conditions of clinical use, also allowing for the identification of possible cytotoxic effects. […] A Resazurin-based reagent is reduced proportionally to the metabolic activity of cells as a result of the transference of electrons from NADPH+H^+, the amount of which strictly depends on glucose metabolism.

Structure (SMILES) | Inhibition of CDC25A, percentage inhibition of control ± SD (CDC25A; 1 µM) [%] | Inhibition of CDC25A, percentage inhibition of control ± SD (CDC25A; 10 µM) [%] | IC50 (SHP1) [nM] | Inhibition of SHP1, percentage of inhibition of the control (SHP1) [%] | Log IC50 ± SD SHP1 (SHP1; logarithm of IC50) | Inhibition of PP2A, percentage inhibition of control ± SD (PP2A; 1 µM) [%] | Inhibition of PP2A, percentage inhibition of control ± SD (PP2A; 10 µM) [%] | Transport of [14C]-deoxy-D-glucose into C2C12 myocytes, % of the control (myocytes C2C12) | IC50 (SHP2) [nM] | Inhibition of SHP2, percentage of inhibition of the control (SHP2) [%] | Reversal of decreased [14C]-deoxy-D-glucose transport, insulin resistance induced by TNF (hepatocytes HepG2 [1]) | Inhibition of glucose synthesis (gluconeogenesis) in hepatocytes (hepatocytes HepG2 [2]) [%] | Inhibition of PTP1B, percentage of inhibition of the control (PTP1B) [%] | Log IC50 ± SD PTP1B (PTP1B; logarithm of IC50) | IC50 (PTP1B; read-out: IC50 PTP1B) [nM] | IC50 (LAR) [nM] | Inhibition of LAR, percentage of inhibition of the control (LAR) [%] | viability at 24 h, 50 µM [3] [%] | Reversal of decreased [14C]-deoxy-D-glucose transport, insulin resistance induced by oleic acid (hepatocytes HepG2 [1])
O=C(NN=Cc1cc(Br)ccc1[O-])c1ccc([N+](=O)[O-])cc1.O=[N+]([O-])c1ccc(C([O-])=NN=Cc2cc(Br)ccc2[O-])cc1.[V+3] [VC068, [V(L13)(HL13)]] | 54 ± 3 | 62 ± 2 | 517 | 70 | −6.29 ± 0.02 | 26 ± 12 | 55 ± 15 | 218 ± 10 % of control | 235 | 74 | reversed the decrease | 79 ± 18 | 40 | −5.69 ± 0.02 | 2030 | 619 | 33 |  | 
CN(CCOc1ccc(CC2SC(=O)NC2=O)cc1)c1ccccn1 (stereo not drawn) [rosiglitazone, reference compound] |  |  |  |  |  |  |  |  |  |  |  |  |  |  |  |  |  | 120 ± 7 | 
O=C(NN=Cc1cc(Br)ccc1[O][V]1[O]C(c2cc3ccccc3cc2O)=NN=Cc2cc(Br)ccc2[O]1)c1cc2ccccc2cc1O [VC067, [V(L12)(HL12)]] |  |  |  | 70 |  |  |  | 199 ± 3 % of control |  | 74 |  |  | 42 |  |  |  | 39 |  | reversed the decrease
